The source of these data is ChEMBL document CHEMBL1201862, “PubChem BioAssay data set” (2004).

Activity calls are given as the source filed them.

Experiment [1] can be described thus: THP-1 cell cytotoxicity, dose response, cytotoxicity control for non-replicating M. tuberculosis project (AID 489025). In kind it is functional.
A short description of experiment [2]: Vero E6 cell cytotoxicity, dose response, cytotoxicity control for non-replicating M. tuberculosis project, secondary assay (AID 492998). In kind it is functional, VeroE6. The note with it: Vero C1008.
A short description of experiment [3]: HepG2 cell cytotoxicity, dose response, cytotoxicity control for non-replicating M. tuberculosis project (AID 489018). The experiment is classed as functional. The note with it: Mycobacterium tuberculosis.
Experiment [4] concerns the target ATP-dependent molecular chaperone HSP82 (Candida albicans (strain WO-1) (Yeast), UniProt C4YTQ8). Kind of experiment: steroid-induced GRE reporter decrease in yeast – S. cerevisiae, luminescence, Hsp90 inhibitor project, dose response (AID 2400).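 Further: beta-galactosidase luminescence from glucocorticoid response element reporter as proxy for Hsp90 function; inhibitor potency where signal loss means Hsp90 inhibition.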 The experiment is classed as functional, cell-based.
A short description of a further experiment: cells. In kind it is functional.
A short description of experiment [5]: microbe, parasite or virus in culture. In kind it is functional. The note with it: Mycobacterium tuberculosis.
Experiment [6] is described as follows: NIH-3T3 fibroblast cytotoxicity, dose response, cytotoxicity control, cell-based, fluorescence, Alamar Blue, secondary assay (AID 2327).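 Further: NIH-3T3 mouse fibroblasts cultured with fluconazole at 8 µg/mL.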 The experiment is classed as functional. (The colour change of resazurin is a common sign of viable cells or microbes.)
Experiment [7] in a line: fluconazole-exposed Candida albicans growth modulators – fluorescence, retest, confirmation (AID 2467). In kind it is functional, cell-based.
The target of experiment [8] is T1, Serine/threonine-protein phosphatase (Candida dubliniensis (strain CD36 / CBS 7987 / NCPF 3949 / NRRLY-17841) (Yeast), UniProt B9W6M3).
T1 sequence (B9W6M3 whole entry): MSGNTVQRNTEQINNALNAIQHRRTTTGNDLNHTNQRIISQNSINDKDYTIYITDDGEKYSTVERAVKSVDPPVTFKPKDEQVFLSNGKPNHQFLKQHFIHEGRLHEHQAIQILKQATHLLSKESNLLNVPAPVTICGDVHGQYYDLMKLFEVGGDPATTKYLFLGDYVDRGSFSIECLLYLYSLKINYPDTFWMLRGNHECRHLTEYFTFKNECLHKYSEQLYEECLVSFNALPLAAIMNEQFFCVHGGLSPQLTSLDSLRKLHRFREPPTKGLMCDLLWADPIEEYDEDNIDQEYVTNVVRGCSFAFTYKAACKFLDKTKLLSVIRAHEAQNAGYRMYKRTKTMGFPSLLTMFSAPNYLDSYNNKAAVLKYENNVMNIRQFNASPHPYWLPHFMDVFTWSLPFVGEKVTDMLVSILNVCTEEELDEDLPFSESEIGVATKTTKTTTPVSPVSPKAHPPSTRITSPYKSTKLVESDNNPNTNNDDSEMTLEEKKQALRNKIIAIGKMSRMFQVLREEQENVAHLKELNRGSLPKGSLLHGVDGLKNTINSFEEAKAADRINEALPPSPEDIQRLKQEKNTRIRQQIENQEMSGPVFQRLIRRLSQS
Kind of experiment: blockers of CaCl2-induced CDRE-lacZ signaling – S. cerevisiae, luminescence, secondary, dose response (AID 2388).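 Further: yeast reporter cells carrying a calcineurin-responsive lacZ construct stimulated with calcium chloride; luminescent beta-galactosidase reporter signal in whole cells rather than isolated phosphatase activity; potency for inhibition where a drop in reporter signal means calcineurin blockade.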 In kind it is functional, cell-based.

In experiment [9] the target is T2, Probable nicotinate-nucleotide adenylyltransferase (Staphylococcus aureus (strain N315), UniProt P65502). The experiment is classed as functional, Staphylococcus aureus subsp. aureus N315. The note with it: read-out: IC50_Mean.
T2 sequence (P65502 whole entry): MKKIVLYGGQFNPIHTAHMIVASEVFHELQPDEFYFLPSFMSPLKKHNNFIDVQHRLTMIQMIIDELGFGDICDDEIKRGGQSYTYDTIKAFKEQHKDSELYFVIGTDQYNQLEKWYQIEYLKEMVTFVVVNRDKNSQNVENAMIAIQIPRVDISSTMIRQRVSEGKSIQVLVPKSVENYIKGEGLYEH
Experiment [10] deals with T2, Probable nicotinate-nucleotide adenylyltransferase. The experiment is classed as functional, Staphylococcus aureus subsp. aureus N315.
The target of experiment [11] is T3, Interleukin-1 receptor-associated kinase 4 (Homo sapiens, UniProt Q9NWZ3).
T3 sequence (Q9NWZ3 whole entry): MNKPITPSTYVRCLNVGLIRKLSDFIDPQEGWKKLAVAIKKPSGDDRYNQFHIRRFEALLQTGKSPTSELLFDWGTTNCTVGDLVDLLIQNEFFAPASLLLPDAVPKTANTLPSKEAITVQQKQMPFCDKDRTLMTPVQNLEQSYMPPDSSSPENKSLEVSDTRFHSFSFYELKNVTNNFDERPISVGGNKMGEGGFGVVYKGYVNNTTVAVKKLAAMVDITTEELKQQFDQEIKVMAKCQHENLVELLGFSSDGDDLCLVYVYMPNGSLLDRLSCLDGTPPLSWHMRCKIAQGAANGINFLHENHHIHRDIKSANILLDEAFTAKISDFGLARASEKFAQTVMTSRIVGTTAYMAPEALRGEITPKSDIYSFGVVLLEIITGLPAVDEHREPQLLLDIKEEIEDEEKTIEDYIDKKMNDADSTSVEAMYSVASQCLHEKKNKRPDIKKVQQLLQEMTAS
The experiment is classed as functional.

In experiment [12] the target is Cell division cycle 7-related protein kinase (Homo sapiens, UniProt O00311). In kind it is functional.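 Further: value obtained from a kinome-wide kinase panel.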
Cell division cycle 7-related protein kinase, sequence (O00311 whole entry): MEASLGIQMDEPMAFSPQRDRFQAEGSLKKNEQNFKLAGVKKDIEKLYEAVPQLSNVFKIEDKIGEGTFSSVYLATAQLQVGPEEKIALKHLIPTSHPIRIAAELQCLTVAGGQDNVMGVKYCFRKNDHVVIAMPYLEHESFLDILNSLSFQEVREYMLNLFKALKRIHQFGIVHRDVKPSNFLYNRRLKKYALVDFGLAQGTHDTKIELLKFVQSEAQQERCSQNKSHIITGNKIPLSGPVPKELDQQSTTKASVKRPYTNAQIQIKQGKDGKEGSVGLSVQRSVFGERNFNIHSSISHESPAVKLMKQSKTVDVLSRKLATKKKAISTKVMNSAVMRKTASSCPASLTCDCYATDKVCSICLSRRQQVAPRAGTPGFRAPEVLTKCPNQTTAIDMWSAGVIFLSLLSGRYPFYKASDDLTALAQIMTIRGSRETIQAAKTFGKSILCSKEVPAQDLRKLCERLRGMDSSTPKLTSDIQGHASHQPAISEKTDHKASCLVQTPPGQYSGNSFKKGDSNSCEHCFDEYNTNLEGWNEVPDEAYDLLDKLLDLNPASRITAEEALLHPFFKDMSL
The target in experiment [13] is Mitogen-activated protein kinase kinase kinase kinase 4 (Homo sapiens, UniProt O95819). The experiment is classed as functional.
Mitogen-activated protein kinase kinase kinase kinase 4, sequence (O95819 whole entry): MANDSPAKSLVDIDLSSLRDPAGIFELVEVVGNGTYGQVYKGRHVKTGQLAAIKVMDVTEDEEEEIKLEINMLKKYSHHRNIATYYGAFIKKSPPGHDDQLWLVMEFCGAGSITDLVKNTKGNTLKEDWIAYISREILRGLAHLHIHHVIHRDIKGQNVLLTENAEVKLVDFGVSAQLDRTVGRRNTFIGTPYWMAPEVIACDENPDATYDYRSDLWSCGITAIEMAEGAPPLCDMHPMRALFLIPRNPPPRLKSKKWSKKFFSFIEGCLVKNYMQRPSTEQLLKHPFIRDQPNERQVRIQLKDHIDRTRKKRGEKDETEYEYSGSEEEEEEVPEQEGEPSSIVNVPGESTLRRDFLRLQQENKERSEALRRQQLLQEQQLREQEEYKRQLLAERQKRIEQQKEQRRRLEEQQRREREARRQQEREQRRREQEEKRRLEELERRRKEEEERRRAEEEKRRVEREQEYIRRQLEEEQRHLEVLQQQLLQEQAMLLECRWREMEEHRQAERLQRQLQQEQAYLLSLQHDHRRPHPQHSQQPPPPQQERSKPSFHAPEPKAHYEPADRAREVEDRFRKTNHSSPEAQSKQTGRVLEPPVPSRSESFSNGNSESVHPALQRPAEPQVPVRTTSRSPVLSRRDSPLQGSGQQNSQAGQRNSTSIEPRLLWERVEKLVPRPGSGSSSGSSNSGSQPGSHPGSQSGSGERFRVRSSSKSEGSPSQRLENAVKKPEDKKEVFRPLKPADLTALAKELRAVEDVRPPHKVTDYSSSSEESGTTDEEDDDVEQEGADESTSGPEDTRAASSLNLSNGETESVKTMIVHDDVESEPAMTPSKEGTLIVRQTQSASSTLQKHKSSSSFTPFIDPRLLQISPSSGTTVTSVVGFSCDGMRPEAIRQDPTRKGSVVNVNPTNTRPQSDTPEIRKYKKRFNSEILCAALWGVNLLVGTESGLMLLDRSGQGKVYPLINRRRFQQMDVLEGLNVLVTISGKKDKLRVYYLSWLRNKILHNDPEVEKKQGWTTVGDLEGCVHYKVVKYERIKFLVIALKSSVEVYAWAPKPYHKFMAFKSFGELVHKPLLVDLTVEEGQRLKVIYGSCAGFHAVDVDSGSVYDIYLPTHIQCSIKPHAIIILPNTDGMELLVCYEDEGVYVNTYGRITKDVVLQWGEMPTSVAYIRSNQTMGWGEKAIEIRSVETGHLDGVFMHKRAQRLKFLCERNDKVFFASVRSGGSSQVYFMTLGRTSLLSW
Experiment [14] concerns the target Homeodomain-interacting protein kinase 2 (Homo sapiens, UniProt Q9H2X6). In kind it is functional.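 Further: measured within a kinome-wide kinase profiling panel, HIPK2 being one panel member.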
For experiment [15], the target named is Glycogen synthase kinase-3 beta (Homo sapiens, UniProt P49841). In kind it is functional.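 Further: value comes from a broad kinome profiling panel, with GSK3B as the panel member.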
Glycogen synthase kinase-3 beta, sequence (P49841 whole entry): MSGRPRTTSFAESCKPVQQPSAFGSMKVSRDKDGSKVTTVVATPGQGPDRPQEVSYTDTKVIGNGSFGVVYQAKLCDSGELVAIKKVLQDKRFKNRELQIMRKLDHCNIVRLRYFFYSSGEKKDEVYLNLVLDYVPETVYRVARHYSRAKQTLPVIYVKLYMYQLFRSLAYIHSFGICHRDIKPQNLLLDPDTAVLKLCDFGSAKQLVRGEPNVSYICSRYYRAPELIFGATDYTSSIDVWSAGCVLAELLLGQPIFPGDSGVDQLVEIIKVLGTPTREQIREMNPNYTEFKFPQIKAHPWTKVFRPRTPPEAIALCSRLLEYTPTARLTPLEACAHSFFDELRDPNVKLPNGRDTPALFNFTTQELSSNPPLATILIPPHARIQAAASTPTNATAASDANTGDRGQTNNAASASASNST
Experiment [16] addresses Serine/threonine-protein kinase pim-1 (Homo sapiens, UniProt P11309). In kind it is functional.
The target of experiment [17] is Dual specificity protein kinase CLK4 (Homo sapiens, UniProt Q9HAZ1). In kind it is functional.
Dual specificity protein kinase CLK4, sequence (Q9HAZ1 whole entry): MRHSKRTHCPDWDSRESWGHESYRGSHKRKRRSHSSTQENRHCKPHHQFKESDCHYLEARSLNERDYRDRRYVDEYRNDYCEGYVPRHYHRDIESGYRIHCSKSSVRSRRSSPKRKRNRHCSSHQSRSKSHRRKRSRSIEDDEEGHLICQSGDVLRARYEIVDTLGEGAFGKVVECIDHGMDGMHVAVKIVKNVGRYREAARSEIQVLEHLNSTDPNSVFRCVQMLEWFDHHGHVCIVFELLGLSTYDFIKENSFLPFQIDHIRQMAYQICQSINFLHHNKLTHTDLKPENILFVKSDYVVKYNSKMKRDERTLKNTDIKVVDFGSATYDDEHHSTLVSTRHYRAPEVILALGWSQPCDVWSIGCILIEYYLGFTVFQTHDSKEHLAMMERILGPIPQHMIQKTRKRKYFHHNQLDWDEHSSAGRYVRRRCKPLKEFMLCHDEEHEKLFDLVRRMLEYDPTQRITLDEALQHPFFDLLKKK
Experiment [18] concerns the target cAMP-dependent protein kinase catalytic subunit alpha (Homo sapiens, UniProt P17612). The experiment is classed as functional.
Experiment [19] deals with T4, Hepatocyte nuclear factor 4-alpha (Homo sapiens, UniProt P41235).
T4 sequence (P41235 whole entry): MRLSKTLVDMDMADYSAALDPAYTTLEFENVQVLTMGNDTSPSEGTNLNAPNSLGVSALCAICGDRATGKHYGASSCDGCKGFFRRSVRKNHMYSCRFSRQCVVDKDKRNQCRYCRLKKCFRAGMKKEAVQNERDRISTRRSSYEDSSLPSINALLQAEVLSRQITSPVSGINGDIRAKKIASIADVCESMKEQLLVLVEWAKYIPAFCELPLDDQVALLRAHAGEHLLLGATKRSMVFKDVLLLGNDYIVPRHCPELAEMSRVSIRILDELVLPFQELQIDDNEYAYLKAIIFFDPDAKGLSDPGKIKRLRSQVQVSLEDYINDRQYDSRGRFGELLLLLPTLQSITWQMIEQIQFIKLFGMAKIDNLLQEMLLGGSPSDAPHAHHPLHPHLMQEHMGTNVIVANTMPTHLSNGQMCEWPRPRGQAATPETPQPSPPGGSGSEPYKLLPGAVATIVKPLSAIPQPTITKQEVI
In kind it is functional, cell-based.
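Wherever IC50 Mean is given: confirmatory dose-response retesting of NadD inhibitor hits first found in an ultra-high-throughput screen.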

Serine/threonine-protein kinase pim-1, sequence (P11309 whole entry): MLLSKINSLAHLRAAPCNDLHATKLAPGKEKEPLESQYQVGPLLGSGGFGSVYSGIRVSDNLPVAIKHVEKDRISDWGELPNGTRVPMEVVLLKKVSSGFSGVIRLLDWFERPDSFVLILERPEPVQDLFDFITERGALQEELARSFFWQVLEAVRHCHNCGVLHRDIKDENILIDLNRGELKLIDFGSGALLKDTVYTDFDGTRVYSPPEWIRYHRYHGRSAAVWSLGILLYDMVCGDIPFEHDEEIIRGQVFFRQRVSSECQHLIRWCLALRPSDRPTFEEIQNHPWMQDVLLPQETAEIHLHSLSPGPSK
Homeodomain-interacting protein kinase 2, sequence (Q9H2X6 whole entry): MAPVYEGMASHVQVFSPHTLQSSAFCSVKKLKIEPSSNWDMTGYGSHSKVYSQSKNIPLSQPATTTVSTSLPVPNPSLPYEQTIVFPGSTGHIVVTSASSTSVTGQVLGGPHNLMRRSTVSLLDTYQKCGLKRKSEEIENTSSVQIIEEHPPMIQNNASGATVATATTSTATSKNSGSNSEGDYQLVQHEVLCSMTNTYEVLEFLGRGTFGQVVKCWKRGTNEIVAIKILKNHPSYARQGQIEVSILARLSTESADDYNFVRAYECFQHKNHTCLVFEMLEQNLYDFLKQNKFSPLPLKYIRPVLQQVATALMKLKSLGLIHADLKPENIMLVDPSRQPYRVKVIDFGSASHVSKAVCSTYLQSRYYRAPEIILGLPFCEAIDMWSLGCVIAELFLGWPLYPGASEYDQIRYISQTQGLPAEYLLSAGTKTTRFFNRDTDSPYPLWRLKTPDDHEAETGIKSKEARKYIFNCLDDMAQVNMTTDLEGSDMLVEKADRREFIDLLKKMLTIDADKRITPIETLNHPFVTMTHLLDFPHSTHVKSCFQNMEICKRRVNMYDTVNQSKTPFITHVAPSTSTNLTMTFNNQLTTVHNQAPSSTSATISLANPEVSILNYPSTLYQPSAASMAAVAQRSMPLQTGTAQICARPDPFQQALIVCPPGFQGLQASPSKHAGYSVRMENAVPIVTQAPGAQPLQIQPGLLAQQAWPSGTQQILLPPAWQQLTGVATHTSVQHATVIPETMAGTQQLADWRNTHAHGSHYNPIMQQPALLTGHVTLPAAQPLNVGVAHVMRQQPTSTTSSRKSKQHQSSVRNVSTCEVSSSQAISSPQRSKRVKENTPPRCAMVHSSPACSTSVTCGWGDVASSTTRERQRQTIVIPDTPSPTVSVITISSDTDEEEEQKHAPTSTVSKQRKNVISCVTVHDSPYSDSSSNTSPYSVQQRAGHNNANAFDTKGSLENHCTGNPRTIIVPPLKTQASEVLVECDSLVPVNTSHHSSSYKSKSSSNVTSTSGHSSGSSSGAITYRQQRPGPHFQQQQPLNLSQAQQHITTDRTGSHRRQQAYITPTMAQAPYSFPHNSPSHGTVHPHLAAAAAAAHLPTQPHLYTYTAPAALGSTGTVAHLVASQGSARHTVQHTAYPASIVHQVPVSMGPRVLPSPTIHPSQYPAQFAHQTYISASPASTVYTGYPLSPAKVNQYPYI

As to `O=c1c2ccc(Cl)cc2nc(-c2ccc([N+](=O)[O-])cc2)n1O`, the CC50 is 11.8 µM (active) in [1], 12.1 µM (active) in [2], 16.8 µM (active) in experiment [3] and 21.4 µM (active) in experiment [5]. The half-maximal effective concentration (EC50) (in general, the concentration giving half of the maximal effect) was 44.6 µM (active) in experiment [4], 99.4 µM (active) in [6], 0.43 µM (active) in experiment [7] and > 180 µM (inactive) in experiment [8]. Besides, in the experiment “cells”, the IC50 is 8.17 µM (active).

In the case of `COc1ccc(NS(=O)(=O)c2ccc(NC(=S)NC(=O)/C=C/c3ccc(C)cc3)cc2)nn1`, the values for the IC50 in experiment [9] and in [10] were 39.3 µM (active) and 5.17 µM (active), respectively.

In the case of `Fc1cccc(-c2c[nH]c3ncccc23)c1`, the Ki (in general, the dissociation constant of the complex between target and ligand, obtained from inhibition or displacement) in experiment [11] is 2.51 µM (active); in [12], 0.0631 µM (active); in experiment [13], 0.00316 µM (active); in [14], 1 µM (active); in experiment [15], 2 µM (active); in experiment [16], 7.94 µM (active). Besides, the Ki is 0.0398 µM (active) in experiment [17] and 2.51 µM (active) in experiment [18].

On to `C=CCNc1cc(-c2c[nH]c3ncccc23)cc(Cl)n1`, for which the Ki was 0.631 µM (active) in experiment [11]; 0.000794 µM (active) in experiment [12]; 0.0501 µM (active) in experiment [14]; 0.1 µM (active) in experiment [15]; 0.794 µM (active) in [16]; 0.00398 µM (active) in experiment [17]. Besides, in [18], the Ki is 0.398 µM (active).

On to `CCCCOc1cc(-c2ccncc2)cc2[nH]nc(N)c12`, for which the Ki in experiment [11] was 0.631 µM (active); in experiment [12], 0.0158 µM (active); in experiment [13], 0.251 µM (active); in experiment [14], 0.794 µM (active); in experiment [15] it was 0.631 µM (active); in experiment [16], 1.58 µM (active). Moreover, the Ki is 0.01 µM (active) in [17] and 1.26 µM (active) in experiment [18].

`COc1ccc(NC(=O)C(c2ccnc3ccccc23)n2c(=O)c(-c3ccco3)nc3ccccc32)cc1` (stereo not given): the IC50 in experiment [19] was 10.9 µM (inactive).

As for `O=C(NC1CCCCC1)C(c1ccc(C(F)(F)F)cc1)n1c(=O)c(-c2ccco2)nc2ccccc21` (stereo not given), the IC50 in experiment [19] is 2.41 µM (active).

Turning to `CCCCCNC(=O)C(c1ccc(C#N)cc1)n1c(=O)c(-c2ccco2)nc2ccccc21` (stereo not given), the IC50 in experiment [19] is 3.24 µM (active).

With `COc1ccc(C(C(=O)NCc2ccccc2)n2c(=O)c(-c3ccco3)nc3ccccc32)cc1` (stereo not given), the IC50 in experiment [19] was 2.46 µM (active).

Take `C#CCN(C[C@H]1[C@H](OC(=O)Nc2cccs2)[C@H](OC(=O)Nc2cccs2)C[C@H]2C(=O)N(c3ccccc3)C(=O)[C@@H]12)S(=O)(=O)c1ccc(C)cc1`: the figures for the IC50 in experiment [9] and in experiment [10] were 34.5 µM (active) and 19.9 µM (active), respectively.
